Assay results reported in PubChem BioAssay AID256 (DTP/NCI, 2004).
Toxic doses and inconclusive results are not listed. How the source made its calls: active means survival T/C of 150% or more; inactive means T/C below 125% in these data. Non-standard residues stand in square brackets, D forms with d. Residues, ends and D or L forms follow the SMILES beside them. ξ: configuration not given here. *: point of attachment. ξF = NC(Cc1ccccc1)C(=O)O; Cbz = O=C(OCc1ccccc1)*; OBn = c1ccc(CO*)cc1

Test system: CD2F1 mice, L1210 leukemia ip, survival T/C
Assay: NCI In Vivo Anticancer Drug Screen. Data for tumor model L1210 Leukemia (intraperitoneal) in CD2F1 (CDF1) mice
Details: higher = longer survival
Procedure, shortened: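 Compound-dosed mice with transplantable tumor versus matched vehicle controls; endpoint ratio T/C reported.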

[1] = endpoint: mean survival time, dose: 100.0 mg/kg/injection, schedule: Q04DX003 (ip), vehicle: saline with Tween-80
[2] = endpoint: mean survival time, dose: 200.0 mg/kg/injection, schedule: Q04DX003 (ip), vehicle: saline with Tween-80
[3] = endpoint: mean survival time, dose: 400.0 mg/kg/injection, schedule: Q04DX003 (ip), vehicle: saline with Tween-80
[4] = endpoint: mean survival time, dose: 100.0 mg/kg/injection, schedule: Q01DX001 (ip), vehicle: saline
[5] = endpoint: mean survival time, dose: 100.0 mg/kg/injection, schedule: Q04DX003 (ip), vehicle: saline
[6] = endpoint: mean survival time, dose: 200.0 mg/kg/injection, schedule: Q01DX001 (ip), vehicle: saline
[7] = endpoint: mean survival time, dose: 200.0 mg/kg/injection, schedule: Q04DX003 (ip), vehicle: saline
[8] = endpoint: mean survival time, dose: 400.0 mg/kg/injection, schedule: Q01DX001 (ip), vehicle: saline
[9] = endpoint: mean survival time, dose: 100.0 mg/kg/injection, schedule: Q01DX009 (ip), vehicle: saline with Tween-80
[10] = endpoint: mean survival time, dose: 200.0 mg/kg/injection, schedule: Q01DX009 (ip), vehicle: saline with Tween-80
[11] = endpoint: mean survival time, dose: 400.0 mg/kg/injection, schedule: Q01DX009 (ip), vehicle: saline with Tween-80
[12] = endpoint: mean survival time, dose: 50.0 mg/kg/injection, schedule: Q01DX009 (ip), vehicle: saline with Tween-80
[13] = endpoint: mean survival time, dose: 100.0 mg/kg/injection, schedule: Q04DX002 (ip), vehicle: saline
[14] = endpoint: mean survival time, dose: 100.0 mg/kg/injection, schedule: Q01DX001 (ip), vehicle: saline with Tween-80
[15] = endpoint: mean survival time, dose: 200.0 mg/kg/injection, schedule: Q01DX001 (ip), vehicle: saline with Tween-80
[16] = endpoint: mean survival time, dose: 100.0 mg/kg/injection, schedule: Q04DX002 (ip), vehicle: saline with Tween-80
[17] = endpoint: mean survival time, dose: 200.0 mg/kg/injection, schedule: Q04DX002 (ip), vehicle: saline with Tween-80
[18] = endpoint: mean survival time, dose: 400.0 mg/kg/injection, schedule: Q04DX002 (ip), vehicle: saline with Tween-80

Measured: T/C

COc1ccc(NC(=O)Nc2ccccc2F)cc1
inactive: [1] 102 % of control | [2] 101 % of control | [3] 95 % of control

Cc1cc(C)c(Sc2c3ccccc3cc3ccccc23)c(C)c1
inactive: [4] 91 % of control | [5] 93 % of control | [6] 101 % of control | [7] 87 % of control | [8] 100 % of control | endpoint: mean survival time, dose: 400.0 mg/kg/injection, schedule: Q04DX003 (ip), vehicle: saline 95 % of control

CCOC/C(O)=C(\C#N)c1cccc(Cl)c1
inactive: endpoint: mean survival time, dose: 25.0 mg/kg/injection, schedule: Q01DX001 (ip), vehicle: other 105 % of control | endpoint: mean survival time, dose: 50.0 mg/kg/injection, schedule: Q01DX001 (ip), vehicle: other 102 % of control | endpoint: mean survival time, dose: 100.0 mg/kg/injection, schedule: Q01DX001 (ip), vehicle: other 102 % of control | endpoint: mean survival time, dose: 200.0 mg/kg/injection, schedule: Q01DX001 (ip), vehicle: other 101 % of control

O=[As](c1ccccc1Br)(c1ccccc1Br)c1ccccc1Br
inactive: endpoint: mean survival time, dose: 50.0 mg/kg/injection, schedule: Q04DX003 (ip), vehicle: saline 101 % of control | [5] 100 % of control | [7] 95 % of control

COc1cc(C2c3cc4c(cc3CC3COC(=O)C32)OCO4)cc(OC)c1O (configuration not stated)
inactive: endpoint: mean survival time, dose: 0.5 mg/kg/injection, schedule: Q01DX009 (ip), vehicle: saline with Tween-80 91 % of control | endpoint: mean survival time, dose: 1.0 mg/kg/injection, schedule: Q01DX009 (ip), vehicle: saline with Tween-80 100 % of control | endpoint: mean survival time, dose: 2.0 mg/kg/injection, schedule: Q01DX009 (ip), vehicle: saline with Tween-80 112 % of control | endpoint: mean survival time, dose: 4.0 mg/kg/injection, schedule: Q01DX009 (ip), vehicle: saline with Tween-80 100 % of control

c1ccc2nc(-c3cc4ccccc4s3)ccc2c1
inactive: [9] 103 % of control | [1] 107 % of control | [10] 100 % of control | [2] 101 % of control | [11] 97 % of control | [3] 96 % of control

Nc1[nH]c(=O)[nH]c(=O)c1N
inactive: [12] 93 % of control | [9] 93 % of control | [13] 97 % of control | [1] 108 % of control | [10] 93 % of control | endpoint: mean survival time, dose: 200.0 mg/kg/injection, schedule: Q04DX002 (ip), vehicle: saline 97 % of control | [2] 108 % of control

CC(O)C1OC(n2cnc3c(=O)[nH]cnc32)C(O)C1O (configuration not stated)
inactive: endpoint: mean survival time, dose: 12.5 mg/kg/injection, schedule: Q01DX005 (ip), vehicle: distilled water + Tween-80 114 % of control | endpoint: mean survival time, dose: 25.0 mg/kg/injection, schedule: Q01DX005 (ip), vehicle: distilled water + Tween-80 112 % of control | endpoint: mean survival time, dose: 50.0 mg/kg/injection, schedule: Q01DX005 (ip), vehicle: distilled water + Tween-80 104 % of control | endpoint: mean survival time, dose: 100.0 mg/kg/injection, schedule: Q01DX005 (ip), vehicle: distilled water + Tween-80 102 % of control | endpoint: mean survival time, dose: 200.0 mg/kg/injection, schedule: Q01DX005 (ip), vehicle: distilled water + Tween-80 100 % of control | endpoint: median survival time, dose: 8.75 mg/kg/injection, schedule: Q01DX005 (ip), vehicle: distilled water + Tween-80 108 % of control | endpoint: median survival time, dose: 12.5 mg/kg/injection, schedule: Q01DX005 (ip), vehicle: water 97 % of control | endpoint: median survival time, dose: 17.5 mg/kg/injection, schedule: Q01DX005 (ip), vehicle: distilled water + Tween-80 108 % of control | endpoint: median survival time, dose: 25.0 mg/kg/injection, schedule: Q01DX005 (ip), vehicle: saline with Tween-80 98 % of control | endpoint: median survival time, dose: 25.0 mg/kg/injection, schedule: Q01DX005 (ip), vehicle: water 97 % of control | endpoint: median survival time, dose: 35.0 mg/kg/injection, schedule: Q01DX005 (ip), vehicle: distilled water + Tween-80 102 % of control | endpoint: median survival time, dose: 50.0 mg/kg/injection, schedule: Q01DX005 (ip), vehicle: saline with Tween-80 107 % of control | endpoint: median survival time, dose: 50.0 mg/kg/injection, schedule: Q01DX005 (ip), vehicle: water 109 % of control | endpoint: median survival time, dose: 70.0 mg/kg/injection, schedule: Q01DX005 (ip), vehicle: distilled water + Tween-80 97 % of control | endpoint: median survival time, dose: 100.0 mg/kg/injection, schedule: Q01DX005 (ip), vehicle: saline with Tween-80 98 % of control | endpoint: median survival time, dose: 100.0 mg/kg/injection, schedule: Q01DX005 (ip), vehicle: water 98 % of control | endpoint: median survival time, dose: 140.0 mg/kg/injection, schedule: Q01DX005 (ip), vehicle: distilled water + Tween-80 97 % of control | endpoint: median survival time, dose: 200.0 mg/kg/injection, schedule: Q01DX005 (ip), vehicle: saline with Tween-80 109 % of control | endpoint: median survival time, dose: 200.0 mg/kg/injection, schedule: Q01DX005 (ip), vehicle: water 102 % of control | endpoint: median survival time, dose: 400.0 mg/kg/injection, schedule: Q01DX005 (ip), vehicle: saline with Tween-80 101 % of control

CC1(C)OC1CS(=O)c1ccccc1 (configuration not stated)
inactive: endpoint: mean survival time, dose: 12.5 mg/kg/injection, schedule: Q01DX009 (ip), vehicle: saline with Tween-80 95 % of control | endpoint: mean survival time, dose: 12.5 mg/kg/injection, schedule: Q01DX009 (ip), vehicle: saline 98 % of control | endpoint: mean survival time, dose: 25.0 mg/kg/injection, schedule: Q01DX009 (ip), vehicle: saline with Tween-80 98 % of control | endpoint: mean survival time, dose: 25.0 mg/kg/injection, schedule: Q01DX009 (ip), vehicle: saline 93 % of control | [12] 95 % of control | endpoint: mean survival time, dose: 50.0 mg/kg/injection, schedule: Q01DX009 (ip), vehicle: saline 101 % of control | [9] 95 % of control | endpoint: mean survival time, dose: 100.0 mg/kg/injection, schedule: Q01DX009 (ip), vehicle: saline 95 % of control | [10] 98 % of control | endpoint: mean survival time, dose: 200.0 mg/kg/injection, schedule: Q01DX009 (ip), vehicle: saline 105 % of control | [11] 93 % of control | endpoint: mean survival time, dose: 400.0 mg/kg/injection, schedule: Q01DX009 (ip), vehicle: saline 98 % of control

N#CC12CCCC(=O)N1C=Cc1ccccc12 (configuration not stated)
inactive: [4] 107 % of control | [6] 100 % of control | [8] 97 % of control

O=C(CNC(=O)OCc1ccccc1)NCC(=O)NC(Cc1ccccc1)C(=O)OCc1ccccc1 (stereo not drawn) (Cbz-Gly-Gly-[ξF]-OBn)
inactive: [1] 97 % of control | [2] 103 % of control | [3] 99 % of control

COC(=O)CCC(C)(c1ccc(O)cc1)c1ccc(O)cc1
inactive: [1] 103 % of control | [2] 97 % of control | [3] 91 % of control

CN(C)CC(N)C(=O)O (configuration not stated)
inactive: endpoint: mean survival time, dose: 50.0 mg/kg/injection, schedule: Q04DX002 (ip), vehicle: saline 89 % of control | [13] 92 % of control

O=C(NCCN=Cc1ccccc1)c1ccccc1
inactive: [14] 108 % of control | [9] 98 % of control | [15] 101 % of control | [10] 101 % of control | endpoint: mean survival time, dose: 400.0 mg/kg/injection, schedule: Q01DX001 (ip), vehicle: saline with Tween-80 95 % of control | [11] 97 % of control

CCCC(=O)Nc1ncnc2c1[nH]c(=O)n2C1OC2COP(=O)(O)OC2C1O (configuration not stated)
inactive: endpoint: mean survival time, dose: 6.25 mg/kg/injection, schedule: Q01DX005 (ip), vehicle: water 97 % of control | endpoint: mean survival time, dose: 12.5 mg/kg/injection, schedule: Q01DX005 (ip), vehicle: water 97 % of control | endpoint: mean survival time, dose: 25.0 mg/kg/injection, schedule: Q01DX005 (ip), vehicle: water 93 % of control | endpoint: mean survival time, dose: 50.0 mg/kg/injection, schedule: Q01DX005 (ip), vehicle: water 93 % of control | endpoint: mean survival time, dose: 100.0 mg/kg/injection, schedule: Q01DX005 (ip), vehicle: water 95 % of control

CCOC(=O)/C=C(\C)CO
inactive: [16] 88 % of control | [17] 103 % of control | [18] 103 % of control

CCCCN(CCCC)C1=C(Cl)C(=O)c2ccccc2C1=O
inactive: endpoint: mean survival time, dose: 25.0 mg/kg/injection, schedule: Q04DX003 (ip), vehicle: saline with Tween-80 98 % of control | endpoint: mean survival time, dose: 50.0 mg/kg/injection, schedule: Q04DX003 (ip), vehicle: saline with Tween-80 98 % of control | [1] 91 % of control

CCCCCCCCCCCCCCCC(=O)Nc1c(C)cccc1C
inactive: [16] 100 % of control | [17] 91 % of control | [18] 95 % of control

O=S(=O)(O)c1cc(N=Nc2cccc3ccccc23)c(O)c2ncccc12
inactive: [1] 104 % of control | [2] 97 % of control | [3] 106 % of control

O=C(CCc1ccc(S(=O)(=O)F)cc1)Nc1cccc(-c2nc3nc[nH]c(=O)c3[nH]2)c1
inactive: endpoint: mean survival time, dose: 50.0 mg/kg/injection, schedule: Q01DX001 (ip), vehicle: saline with Tween-80 94 % of control | [14] 94 % of control | [15] 90 % of control
